From ChEMBL document CHEMBL1129120, “Anti-human immunodeficiency and anti-hepatitis B virus activities of -l-2,3-dideoxy purine nucleosides” (Bioorg Med Chem Lett, 1996) come the findings set out here.

The pEC50 is the negative decadic logarithm of the EC50, by convention in mol/L. Higher therefore signals a low EC50. The pIC50 is the negative decadic logarithm of the IC50, by convention in mol/L. A low value points to a high IC50.

Experiment [1] deals with HepG2. Kind of experiment: Antiviral activity against Hepatitis B virus in 2.2.15 cell line. It is filed as functional, cell-based. The settings on record: Homo sapiens.
Experiment [2] deals with HepG2. Kind of experiment: Concentration required to inhibit 50% of 2.2.15 cell line. In kind it is functional, cell-based. The settings on record: Homo sapiens.
The nature of experiment [3]: Concentration required to inhibit 50% of human peripheral blood mononuclear cells. It is filed as functional.
Experiment [4] in a line: Antiviral activity against HIV in human peripheral blood mononuclear cells (PBMC). It is filed as functional.
Experiment [5] has as its system CCRF-CEM. Kind of experiment: Antiviral activity against HIV in CEM cell line. It is filed as functional, cell-based. As to conditions: Homo sapiens.
Experiment [6] relates to CCRF-CEM. Kind of experiment: Concentration required to inhibit 50% of CEM cell lines. It is filed as functional, cell-based. As to conditions: Homo sapiens.

pEC50, pIC50: −log10 of the molar value.

As for `Nc1ncnc2c1ncn2[C@H]1CC[C@@H](CO)O1` (single isomer, unassigned), the pEC50 with HepG2 [1] was 5.22; in experiment [4], 5.09. The pIC50 was less than 3.70 in the experiment with HepG2 [2] and less than 4.00 in experiment [3].
For `OC[C@H]1C=C[C@@H](n2cnc3c(O)ncnc32)O1`, the figures for the pEC50 (in the experiment with HepG2 [1]; in experiment [4]) were less than 5.00 and 5.26, respectively. For the same molecule, the figures for the pIC50 (in the experiment on HepG2 [2]; in experiment [3]) were 4.30 and 4.22, respectively.
Take `Nc1nc(O)c2ncn([C@H]3CC[C@@H](CO)O3)c2n1` (single isomer, unassigned): the values for the pEC50 (with HepG2 [1]; with CCRF-CEM [5]; in experiment [4]) were less than 5.00, less than 4.00 and less than 4.00, respectively. Besides, the pIC50 with HepG2 [2] is 3.70; in the experiment on CCRF-CEM [6], less than 4.00; in experiment [3], less than 4.00.
With `Nc1ncnc2c1ncn2[C@H]1C=C[C@@H](CO)O1` (single isomer, unassigned), the pEC50 with HepG2 [1] is 5.92; in the experiment with CCRF-CEM [5] it was 6.27; in experiment [4] it was 6.42. For the same molecule, the pIC50 in the experiment with HepG2 [2] is 4.15; in the experiment on CCRF-CEM [6], 4.43; in experiment [3], 4.23.
For the molecule `Nc1nc(O)c2ncn([C@@H]3C=C[C@H](CO)O3)c2n1`, the negative-log EC50 (pEC50) in the experiment on HepG2 [1] is less than 5.00; in the experiment with CCRF-CEM [5], 4.74; in experiment [4], 4.85. For the same molecule, the figures for the pIC50 (in the experiment on HepG2 [2]; in the experiment on CCRF-CEM [6]; in experiment [3]) were 4.30, less than 5.00 and less than 4.00, respectively.
As to `O=c1[nH]cnc2c1ncn2[C@H]1CC[C@@H](CO)O1` (single isomer, unassigned) [DIDANOSINE], the pEC50 with HepG2 [1] is less than 5.00; in experiment [4] it was less than 4.00. Besides, the pIC50 with HepG2 [2] was less than 3.70; in experiment [3], less than 4.00.
